Measurements published in patent US12012467B2, “Small molecule DCN1 inhibitors and therapeutic methods using the same” (THE REGENTS OF THE UNIVERSITY OF MICHIGAN, priority 2017, dated 2024).
Read-outs that look alike come from different tables or passages of the source. Numbered stars: 1 amine (or outer) side, 2 acyl side, 3 side chain; on linkers, the order of the positions; unused ones are H or OH. Square brackets hold non-standard residues; d marks the D form. Peptide text beside a SMILES is read from it. * marks the point of attachment. Ala(6-iPr-benzothiazol-2-yl) = CC(C)c1ccc2nc(C[C@H](N)C(=O)O)sc2c1; Abu(4,4,4-F3) = N[C@@H](CC(F)(F)F)C(=O)O; Cyclopropanecarbonyl = O=C(C1CC1)*; Gly(cPent) = N[C@H](C(=O)O)C1CCCC1; tBuAla = CC(C)(C)C[C@H](N)C(=O)O; Chg = N[C@H](C(=O)O)C1CCCCC1; Isovaleryl = CC(C)CC(=O)*; Isobutyryl = CC(C)C(=O)*; Abu = CC[C@H](N)C(=O)O; CO = O=C([*:1])[*:2]; Propionyl = CCC(=O)*; Butyryl = CCCC(=O)*; Moc = COC(=O)*; For = O=C*

Target: DCN1 (Homo sapiens (Human), UniProt Q96GG9)
Test: Competitive FP binding assay
In short: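 FP competition with DCN1 in 100 mM phosphate pH 6.5, 0.02% Tween-20, 2% DMSO, probe 5 nM final. Equilibrated 30 min at room temperature with shaking. DCN1 was His6-tagged (uncleaved), expressed in E. coli Rosetta2 and purified by Ni-NTA and gel filtration.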

[1] = read-out: Binding affinity to DCN1 (IC50 (nM))
[2] = bounds given in μM, read-out: Binding affinity to DCN1 (IC50)

Chain of DCN1 (Q96GG9 58-259): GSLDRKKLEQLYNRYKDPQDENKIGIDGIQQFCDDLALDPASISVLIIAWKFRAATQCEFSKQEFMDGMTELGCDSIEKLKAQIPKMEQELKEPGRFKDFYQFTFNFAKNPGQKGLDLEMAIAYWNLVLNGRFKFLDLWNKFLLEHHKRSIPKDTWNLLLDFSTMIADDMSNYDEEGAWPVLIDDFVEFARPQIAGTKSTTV

CCC(=O)N[C@@H](Cc1nc2ccc(Br)cc2s1)C(=O)N[C@H](CN)Cc1ccccc1 [Example 222]
IC50 [1]: 858 nM

CCC(=O)N[C@@H](Cc1nc2ccc(C(C)(C)C)cc2s1)C(=O)N[C@H](CN)Cc1ccccc1 [Example 223]
IC50 [1]: 949 nM

CCC(=O)N[C@@H](Cc1nc2ccc(Cl)cc2s1)C(=O)N[C@H](C(=O)NCCCCCN(C)C)C1CCCC1 [Example 224]
IC50 [1]: 575 nM

CCC(=O)N[C@@H](Cc1nc(CC)c(-c2ccccc2)s1)C(=O)N[C@H](CN)Cc1ccccc1 [Example 225]
IC50 [2]: > 3000 nM

CCC(=O)N[C@@H](Cc1nc2ccc(Cl)cc2s1)C(=O)N[C@H](CNC(=O)[C@H](C)CN1CCOCC1)Cc1ccccc1 [Example 226]
IC50 [1]: 611 nM

CCC(=O)N[C@@H](Cc1nc2ccc(Cl)cc2s1)C(=O)N[C@H](CNC(=O)[C@@H](C)CN1CCOCC1)Cc1ccccc1 [Example 227]
IC50 [1]: 471 nM

CCC(=O)N[C@@H](Cc1nc(C)c(-c2ccccn2)s1)C(=O)N[C@H](CN)Cc1ccccc1 [Example 228]
IC50 [2]: > 10000 nM

CCC(=O)N[C@@H](Cc1nc(C)c(-c2cccnc2)s1)C(=O)N[C@H](CN)Cc1ccccc1 [Example 229]
IC50 [2]: > 10000 nM

CCC(=O)N[C@@H](Cc1nc(C)c(-c2ccncc2)s1)C(=O)N[C@H](CN)Cc1ccccc1 [Example 230]
IC50 [2]: > 10000 nM

CCC(=O)N[C@@H](Cc1nc(C)c(-c2cccc(C#N)c2)s1)C(=O)N[C@H](CN)Cc1ccccc1 [Example 231]
IC50 [2]: > 10000 nM

CCC(=O)N[C@@H](Cc1nc(C)c(-c2cccc(Br)c2)s1)C(=O)N[C@H](CN)Cc1ccccc1 [Example 232]
IC50 [1]: 984 nM

CCC(=O)N[C@@H](Cc1nc(C)c(-c2cccc(C(F)(F)F)c2)s1)C(=O)N[C@H](CN)Cc1ccccc1 [Example 233]
IC50 [2]: > 10000 nM

CCC(=O)N[C@@H](Cc1nc(C)c(-c2cccc(F)c2)s1)C(=O)N[C@H](CN)Cc1ccccc1 [Example 234]
IC50 [1]: 1280 nM

CCC(=O)N[C@@H](Cc1nc2ccc(Cl)cc2s1)C(=O)NCCN [Example 235]
IC50 [2]: > 10000 nM

COCCC(=O)N[C@@H](Cc1nc2ccc(Cl)cc2s1)C(=O)NCCN [Example 236]
IC50 [2]: > 10000 nM

NCCNC(=O)[C@H](Cc1nc2ccc(Cl)cc2s1)NC(=O)CCOc1ccccc1 [Example 237]
IC50 [2]: > 10000 nM

NCCNC(=O)[C@H](Cc1nc2ccc(Cl)cc2s1)NC(=O)CCOCc1ccccc1 [Example 238]
IC50 [2]: > 10000 nM

CCC(=O)N[C@@H](Cc1cn(-c2cccc(Cl)c2)cn1)C(=O)N[C@H](CN)Cc1ccccc1 [Example 239]
IC50 [2]: > 10000 nM

CCC(=O)N[C@@H](Cc1nc2ccc(Cl)cc2s1)C(=O)N[C@H](C(=O)N[C@@H](CCCCN)C(=O)NCc1ccccn1)C1CCOCC1 [Example 241]
IC50 [1]: 913 nM

CCC(=O)N[C@@H](Cc1nc2ccc(Cl)cc2s1)C(=O)N[C@H](C(=O)N[C@@H](CCCCN)C(=O)NCc1cccnc1)C1CCOCC1 [Example 242]
IC50 [1]: 1200 nM

CCC(=O)N[C@@H](Cc1nc2ccc(Cl)cc2s1)C(=O)N[C@H](C(=O)N[C@@H](CCCCN)C(=O)NCc1ccncc1)C1CCOCC1 [Example 243]
IC50 [1]: 1510 nM

CCC(=O)N[C@@H](Cc1nc2ccc(Cl)cc2s1)C(=O)NCc1ccccn1 [Example 251]
IC50 [2]: > 5000 nM

CCC(=O)N[C@H](CNC(=O)c1ccccc1)Cc1nc2ccc(Cl)cc2s1 [Example 252]
IC50 [1]: 1840 nM

CCC(=O)N[C@H](CNC(=O)Cc1ccccc1)Cc1nc2ccc(Cl)cc2s1 [Example 253]
IC50 [1]: 1200 nM

CCC(=O)N[C@H](CNC(=O)C1CCCCC1)Cc1nc2ccc(Cl)cc2s1 [Example 254]
IC50 [1]: 1340 nM

CCC(=O)N[C@H](CNC(=O)CC1CCCC1)Cc1nc2ccc(Cl)cc2s1 [Example 255]
IC50 [1]: 802 nM

CCC(=O)N[C@H](CNC(=O)c1ccccn1)Cc1nc2ccc(Cl)cc2s1 [Example 256]
IC50 [1]: 2140 nM

CCC(=O)N[C@H](CNC(=O)Cc1ccccn1)Cc1nc2ccc(Cl)cc2s1 [Example 257]
IC50 [1]: 3450 nM

CCC(=O)N[C@H](CNC(=O)Nc1ccccc1)Cc1nc2ccc(Cl)cc2s1 [Example 258]
IC50 [1]: 3920 nM

CCC(=O)N[C@@H](Cc1nc2ccc(Cl)cc2s1)CN(Cc1ccccc1)Cc1ccccc1 [Example 259]
IC50 [2]: > 10000 nM

CCC(=O)N[C@H](CNC(=O)[C@@H](N)C1CCCC1)Cc1nc2ccc(Cl)cc2s1 [Example 260]
IC50 [1]: 1200 nM

CCC(=O)N[C@H](CNC(=O)[C@H](N)C1CCCC1)Cc1nc2ccc(Cl)cc2s1 [Example 261]
IC50 [2]: > 5000 nM

CC(C)c1ccc2nc(C[C@H](NC(=O)C3CC3)C(=O)N[C@H](CN)C3CCCCC3)sc2c1 [Example 262]
IC50 [1]: 155 nM

CC(C)C(=O)N[C@@H](Cc1nc2ccc(C(C)C)cc2s1)C(=O)N[C@H](CN)C1CCCCC1 [Example 263]
IC50 [1]: 139 nM

CCC(=O)N[C@@H](Cc1nc2ccc(C(C)C)cc2s1)C(=O)N[C@H](C(=O)NCCN1CCOCC1)C1CCN(C(=O)OC(C)(C)C)CC1 [Example 264]
IC50 [1]: 1500 nM

CCC(=O)N[C@@H](Cc1nc2ccc(C(C)C)cc2s1)C(=O)N[C@H](C(=O)NCCN1CCOCC1)C1CCNCC1 [Example 265]
IC50 [2]: > 10000 nM

CCC(=O)N[C@@H](Cc1nc2ccc(C(C)C)cc2s1)C(=O)N[C@H](CNC(=O)c1ncc[nH]1)C1CCCCC1 [Example 268]
IC50 [1]: 1210 nM

CCC(=O)N[C@H](CNC(=O)C1(N)CCC(C)(C)CC1)Cc1nc2ccc(C(C)C)cc2s1 [Example 269]
IC50 [2]: > 10000 nM

CCC(=O)N[C@H](CNC(=O)[C@H]1CCCCN1)Cc1nc2ccc(C(C)C)cc2s1 [Example 270]
IC50 [2]: > 10000 nM

CC[C@H](C)[C@H](NC(=O)[C@H](Cc1nc2ccc(C(C)C)cc2s1)NC=O)C(=O)N[C@@H](CCCCN)C(=O)N[C@@H](CC(C)C)C(N)=O [Example 271] (For-[Ala(6-iPr-benzothiazol-2-yl)]IKL-NH2)
IC50 [1]: 122 nM

CC[C@H](C)[C@H](NC(=O)[C@@H](N)Cc1nc2ccc(C(C)C)cc2s1)C(=O)N[C@@H](CCCCN)C(=O)N[C@@H](CC(C)C)C(N)=O [Example 272] (H-[Ala(6-iPr-benzothiazol-2-yl)]IKL-NH2)
IC50 [2]: > 10000 nM

CCC(=O)N[C@@H](Cc1nc2ccc(C(C)C)cc2s1)C(=O)N[C@H](C(=O)N[C@@H](CCCCN)C(=O)N[C@@H](CC(C)C)C(N)=O)[C@@H](C)CC [Example 273] (Propionyl-[Ala(6-iPr-benzothiazol-2-yl)]IKL-NH2)
IC50 [1]: 51 nM

CC[C@H](C)[C@H](NC(=O)[C@H](Cc1nc2ccc(C(C)C)cc2s1)NC(=O)C1CC1)C(=O)N[C@@H](CCCCN)C(=O)N[C@@H](CC(C)C)C(N)=O [Example 274] (Cyclopropanecarbonyl-[Ala(6-iPr-benzothiazol-2-yl)]IKL-NH2)
IC50 [1]: 82.5 nM

CC[C@H](C)[C@H](NC(=O)[C@H](Cc1nc2ccc(C(C)C)cc2s1)NC(=O)C(C)C)C(=O)N[C@@H](CCCCN)C(=O)N[C@@H](CC(C)C)C(N)=O [Example 275] (Isobutyryl-[Ala(6-iPr-benzothiazol-2-yl)]IKL-NH2)
IC50 [1]: 77.8 nM

CCCC(=O)N[C@@H](Cc1nc2ccc(C(C)C)cc2s1)C(=O)N[C@H](C(=O)N[C@@H](CCCCN)C(=O)N[C@@H](CC(C)C)C(N)=O)[C@@H](C)CC [Example 276] (Butyryl-[Ala(6-iPr-benzothiazol-2-yl)]IKL-NH2)
IC50 [1]: 109 nM

CC[C@H](C)[C@H](NC(=O)[C@H](Cc1nc2ccc(C(C)C)cc2s1)NC(=O)CC(C)C)C(=O)N[C@@H](CCCCN)C(=O)N[C@@H](CC(C)C)C(N)=O [Example 277] (Isovaleryl-[Ala(6-iPr-benzothiazol-2-yl)]IKL-NH2)
IC50 [1]: 517 nM

CC[C@H](C)[C@H](NC(=O)[C@H](Cc1nc2ccc(C(C)C)cc2s1)NC(=O)NC)C(=O)N[C@@H](CCCCN)C(=O)N[C@@H](CC(C)C)C(N)=O [Example 278] ({NHMe-CO}-[Ala(6-iPr-benzothiazol-2-yl)]IKL-NH2)
IC50 [1]: 68.2 nM

CC[C@H](C)[C@H](NC(=O)[C@H](Cc1nc2ccc(C(C)C)cc2s1)NC(=O)OC)C(=O)N[C@@H](CCCCN)C(=O)N[C@@H](CC(C)C)C(N)=O [Example 279] (Moc-[Ala(6-iPr-benzothiazol-2-yl)]IKL-NH2)
IC50 [1]: 217 nM

CCC(=O)N[C@@H](Cc1nc2ccc(C(C)C)cc2s1)C(=O)N[C@@H](C)C(=O)N[C@@H](CCCCN)C(=O)N[C@@H](CC(C)C)C(N)=O [Example 280] (Propionyl-[Ala(6-iPr-benzothiazol-2-yl)]AKL-NH2)
IC50 [1]: 69.4 nM

CCC(=O)N[C@@H](Cc1nc2ccc(C(C)C)cc2s1)C(=O)N[C@@H](CC)C(=O)N[C@@H](CCCCN)C(=O)N[C@@H](CC(C)C)C(N)=O [Example 281] (Propionyl-[Ala(6-iPr-benzothiazol-2-yl)][Abu]KL-NH2)
IC50 [1]: 37.4 nM

CCC(=O)N[C@@H](Cc1nc2ccc(C(C)C)cc2s1)C(=O)N[C@H](C(=O)N[C@@H](CCCCN)C(=O)N[C@@H](CC(C)C)C(N)=O)C(C)C [Example 282] (Propionyl-[Ala(6-iPr-benzothiazol-2-yl)]VKL-NH2)
IC50 [1]: 72 nM

CCC(=O)N[C@@H](Cc1nc2ccc(C(C)C)cc2s1)C(=O)N[C@@H](CC(C)(C)C)C(=O)N[C@@H](CCCCN)C(=O)N[C@@H](CC(C)C)C(N)=O [Example 283] (Propionyl-[Ala(6-iPr-benzothiazol-2-yl)][tBuAla]KL-NH2)
IC50 [1]: 83 nM

CCC(=O)N[C@@H](Cc1nc2ccc(C(C)C)cc2s1)C(=O)N[C@@H](CC(F)(F)F)C(=O)N[C@@H](CCCCN)C(=O)N[C@@H](CC(C)C)C(N)=O [Example 284] (Propionyl-[Ala(6-iPr-benzothiazol-2-yl)][Abu(4,4,4-F3)]KL-NH2)
IC50 [1]: 154 nM

CCC(=O)N[C@@H](Cc1nc2ccc(C(C)C)cc2s1)C(=O)N[C@H](C(=O)N[C@@H](CCCCN)C(=O)N[C@@H](CC(C)C)C(N)=O)C1CCCC1 [Example 285] (Propionyl-[Ala(6-iPr-benzothiazol-2-yl)][Gly(cPent)]KL-NH2)
IC50 [1]: < 100 nM

CCC(=O)N[C@@H](Cc1nc2ccc(C(C)C)cc2s1)C(=O)N[C@H](C(=O)N[C@@H](CCCCN)C(=O)N[C@@H](CC(C)C)C(N)=O)C1CCCCC1 [Example 286] (Propionyl-[Ala(6-iPr-benzothiazol-2-yl)][Chg]KL-NH2)
IC50 [1]: 58.3 nM
